Assay results: paper PMC5517026, “Crystal structure and functional characterization of an isoaspartyl dipeptidase (CpsIadA) from Colwellia psychrerythraea strain 34H” (PLoS ONE, 2017)
Where a SMILES comes first, the peptide text is derived from it.

Columns and labels:
CpsIadA [1] = target: T1, CpsIadA (Colwellia psychrerythraea, UniProt Q484B6); assay: coupled spectrophotometric assay (aspartate aminotransferase/malate dehydrogenase, NADH at […] nm); assay type: biochemical; conditions: 100 mM HEPES pH 8.0, 100 mM KCl, 30°C
T1 construct: gene iadA; Ni-NTA and gel filtration; homo-octamer (314 kDa by AUC), two Zn ions per active site
T1 sequence (Q484B6 entry or part of it): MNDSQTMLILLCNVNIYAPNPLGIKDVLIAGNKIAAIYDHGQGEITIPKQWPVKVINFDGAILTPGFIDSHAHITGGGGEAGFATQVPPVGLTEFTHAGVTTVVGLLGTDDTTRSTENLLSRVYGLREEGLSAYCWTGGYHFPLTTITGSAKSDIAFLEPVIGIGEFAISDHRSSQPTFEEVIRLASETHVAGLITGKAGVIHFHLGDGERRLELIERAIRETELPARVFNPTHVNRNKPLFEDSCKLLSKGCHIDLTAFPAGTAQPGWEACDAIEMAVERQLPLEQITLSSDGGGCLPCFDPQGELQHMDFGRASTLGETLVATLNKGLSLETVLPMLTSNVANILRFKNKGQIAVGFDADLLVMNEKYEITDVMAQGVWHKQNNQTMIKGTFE

CpsIadA [2] = target: T1, CpsIadA; assay: coupled assay with L-alanine dehydrogenase/diaphorase, INT reduction at […] nm; assay type: biochemical; conditions: 100 mM HEPES pH 8.0, 1.5 mM INT, 1.5 mM NAD+, 30°C
CpsIadA [3] = target: T2, CpsIadA (Colwellia psychrerythraea, UniProt Q484B6, E80Q, form not given); assay: X-ray crystal structure of the complex ([…] Å); assay type: binding; conditions: active site, two Zn ions; 5 mM ligand added before crystallization; catalytically inactive mutant
T2 construct: gene iadA; Ni-NTA and gel filtration; homo-octamer (314 kDa by AUC), two Zn ions per active site
T2 sequence (Q484B6 entry or part of it E80Q, form open): as the sequence (Q484B6 entry or part of it) above, with E80Q counted along it

[4] = target: CpsIadA E80Q mutant (Colwellia psychrerythraea strain 34H) (UniProt Q484B6); assay: crystal structure; CpsIadA E80Q mutant with 5 mM β-aspartyl lysine, 2.33 Å, space group P4212, two monomers in the asymmetric unit; 0.1 M Bis-Tris propane pH 7.0, 1 M ammonium citrate tribasic pH 7.0, 293 K
[5] = target: isoaspartyl dipeptidase from Colwellia psychrerythraea strain 34H (CpsIadA), wild type (Colwellia psychrerythraea strain 34H) (UniProt Q484B6); assay: SEC; analytical size-exclusion chromatography; conditions not given; self-association (octamer)
[6] = target: isoaspartyl dipeptidase from Colwellia psychrerythraea strain 34H (CpsIadA), wild type (Colwellia psychrerythraea strain 34H) (UniProt Q484B6); assay: crystal structure; ligand-free wild type CpsIadA, 1.85 Å, space group P4212, two monomers in the asymmetric unit; 0.1 M Bis-Tris propane pH 7.0, 1.4 M sodium malonate, 293 K
[7] = target: isoaspartyl dipeptidase from Colwellia psychrerythraea strain 34H (CpsIadA), wild type (Colwellia psychrerythraea strain 34H) (UniProt Q484B6); assay: AUC; sedimentation velocity, 20°C, 0.5 mg/mL CpsIadA, 25 mM Tris-HCl pH 8.0, 200 mM NaCl, 5 mM MgCl2, 2 mM dithiothreitol, 45,000 rpm, SEDFIT; self-association (octamer)

Question: With `N[C@@H](CC(=O)N[C@@H](Cc1ccccc1)C(=O)O)C(=O)O` [β-Asp-Phe] as the compound, how does the Km (CpsIadA [1]) read?
Answer: The Km was 490 ± 90 µM.

Question: For `C[C@H](NC(=O)C[C@H](N)C(=O)O)C(=O)O` [β-Asp-Ala], which Km (CpsIadA [1]) is on record?
Answer: Its Km is 1200 ± 300 µM.

Question: Which Km (CpsIadA [2]) does the source give for `C[C@H](NC(=O)CCN)C(=O)O` [β-Ala-Ala] here?
Answer: Its Km is 930 ± 300 µM.

Question: With `N[C@@H](CC(=O)NCC(=O)O)C(=O)O` [β-Asp-Gly] as the compound, how does the Km (CpsIadA [1]) read?
Answer: The Km was 4700 ± 400 µM.

Question: With `NCCCC[C@H](NC(=O)C[C@H](N)C(=O)O)C(=O)O` [β-Asp-Lys] as the compound, how does the “X-ray crystal structure of the complex (2.33 Å)” value (CpsIadA [3]) read?
Answer: The value was “β-isoaspartyl lysine bound CpsIadA E80Q mutant have been deposited in the Protein Data Bank”.

Question: And the Km (CpsIadA [1])?
Answer: Its Km is 1100 ± 90 µM.

Question: For “CpsIadA E80Q mutant (from UniProt Q484B6 1-395) (enzyme)”, which stoichiometry N [4] is on record?
Answer: Its stoichiometry N is 8.

Question: `CC(C)C[C@H](NC(=O)[C@@H](N)CC(=O)O)C(=O)O` [α-Asp-Leu] (H-Asp-Leu-OH) was tested. Which Km (CpsIadA [1]) did it give?
Answer: Its Km is 6900 ± 400 µM.

Question: What does the source list for “isoaspartyl dipeptidase from Colwellia psychrerythraea strain 34H (CpsIadA), wild type (from UniProt Q484B6 1-395) (enzyme)”?
Answer: stoichiometry N [5]: 8; stoichiometry N [6]: 8; stoichiometry N [7]: 8

Question: For `N[C@@H](CC(=O)N[C@@H](Cc1c[nH]cn1)C(=O)O)C(=O)O` [β-Asp-His], which Km (CpsIadA [1]) is on record?
Answer: The Km was 5300 ± 500 µM.

Question: Which Km (CpsIadA [1]) does the source give for `CC(C)C[C@H](NC(=O)C[C@H](N)C(=O)O)C(=O)O` [β-Asp-Leu] here?
Answer: The Km was 710 ± 80 µM.
